From US8569000B2, “Immunoassays using antibodies specific to carbamazepine” (priority 2011, dated 2013)

system: antibody specific to carbamazepine; assay: Interference from other drugs in the carbamazepine ELISA assay; type: binding, rabbit; conditions: chemical tested at 10.0 μg/ml; procedures of Example 4 (ELISA); duplicate
Excerpt: The Carbamazepine ELISA was developed with the antibody generated from Example 3. This assay is a competitive micro-immunoassay for determination of carbamazepine in a fluid sample. Carbamazepine in the fluid sample and carbamazepine derivative linked with the enzyme (HRP)-conjugate compete for the finite sites of the antibody coated on the solid surface of the microwell. If little or no carbamazepine is present in the fluid sample, more enzyme labeled carbamazepine derivative will bind to the antibody on the solid surface. Conversely, if a large or a significant amount of carbamazepine is present in the fluid sample, less enzyme labeled carbamazepine derivative will bind to the antibody, producing less color signal. The absorbance produced is inversely proportional to the amount of carbamazepine in the fluid sample.
Interference from other drugs was tested using 30 frequently used chemicals and medicines, at concentrations of 10.0 μg/ml.
The samples were tested in duplicate, following the procedures used in Example 4. All 30 samples produced a negative test result. Thus, the immunoassay of the present disclosure is specific to carbamazepine.

| Compound | Equivalent Carbamazepine Conc. [µg/mL] |
| --- | --- |
| CN1C(=O)CN=C(c2ccccc2)c2cc(Cl)ccc21 [Diazepam] | <0.1 |
| CN(C)CCCN1c2ccccc2CCc2ccccc21 [Imipramine] | <0.1 |
| CC(=O)Oc1ccccc1C(=O)O [Acetylsalicylic Acid] | <0.1 |
| O=C(O)C1N=C(c2ccccc2)c2cc(Cl)ccc2NC1=O (centres unmarked) [Clorazepate] | <0.1 |
| NC(=O)c1cccnc1 [Niacinamide] | <0.1 |
| Ecgonine | <0.1 |
| CCC1(CCC(C)C)C(=O)NC(=O)NC1=O [Amobarbital] | <0.1 |
| CN[C@@H](C)Cc1ccccc1 [d-Methamphetamine] | <0.1 |
| CNC[C@H](O)c1cccc(O)c1 [Phenylephrine] | <0.1 |
| CN1C(=O)CC[C@H]1c1cccnc1 [(−)-Cotinine] | <0.1 |
| CC(C(=O)O)c1cccc(Oc2ccccc2)c1 (centres unmarked) [Fenoprofen] | <0.1 |
| Penicillin | <0.1 |
| Cc1cc(CC(=O)O)n(C)c1C(=O)c1ccc(Cl)cc1 [Zomepirac] | <0.1 |
| CCN(CC)CC(=O)Nc1c(C)cccc1C [Lidocaine] | <0.1 |
| CCN(CC)CCOC(=O)c1ccc(N)cc1 [Procaine] | <0.1 |
| CC1(C)S[C@@H]2[C@H](NC(=O)[C@H](N)c3ccccc3)C(=O)N2[C@H]1C(=O)O [Ampicillin] | <0.1 |
| CCN(CC)CCNC(=O)c1ccc(N)cc1 [Procainamide] | <0.1 |
| C=C[C@H]1C[N@@]2CC[C@H]1C[C@@H]2[C@@H](O)c1ccnc2ccc(OC)cc12 [Quinidine] | <0.1 |
| COc1ccc2c3c1O[C@H]1C(=O)CC[C@H]4[C@@H](C2)N(C)CC[C@]314 [Hydrocodone] | <0.1 |
| Cc1ccc(C)c(OCCCC(C)(C)C(=O)O)c1 [Gemfibrozil] | <0.1 |
| Cn1c(=O)c2c(ncn2C)n(C)c1=O [Caffeine] | <0.1 |
| CN(C)CCCN1c2ccccc2Sc2ccc(Cl)cc21 [Chlorpromazine] | <0.1 |
| COC(=O)[C@@H]1[C@H]2CC[C@@H](C[C@@H]1O)N2C [Ecgonine Methyl Ester] | <0.1 |
| O=C(O)c1cc(O)ccc1O [Gentisic Acid] | <0.1 |
| CC(C)Cc1ccc(C(C)C(=O)O)cc1 (centres unmarked) [Ibuprofen] | <0.1 |
| NCCc1ccccc1 [beta-Phenylethylamine] | <0.1 |
| CC(N)C(O)c1ccccc1 (centres unmarked) [Phenylpropanolamine] | <0.1 |
| CN[C@@H](C)[C@H](O)c1ccccc1 [(L)-Ephedrine] | <0.1 |
| COc1ccc2cc([C@H](C)C(=O)O)ccc2c1 [Naproxen] | <0.1 |
